Measured values from patent US20260284014A1, “3,5-DIAMINOTRIAZOLE DERIVATIVES AND USES THEREOF FOR TREATING OCULAR DISEASES” (CENTRE NATIONAL DE LA RECHERCHE SCIENTIFIQUE, priority 2023, published 2026).
“Also recorded” adds a separate entry of the source.

Columns and labels:
ARPE-19 cells = test: Cell viability (XTT assay); assay type: cell-based; details: Homo sapiens, 48 h, read-out: A. Safety IC50 on ARPE-19 cells
Procedure: ARPE-19 cells were incubated in a 96-well plate with different effectors for 48 hours. Fifty microliters of sodium 3′-[1-phenylaminocarbonyl)-3,4-tetrazolium]-bis(4-methoxy-6-nitro) benzene sulfonic acid hydrate (XTT) reagent was added to each well. The test is based on the cleavage of the yellow tetrazolium salt XTT to form an orange formazan dye by metabolically active cells. This bio-reduction occurs in viable cells only and is associated with NAD(P)H production through glycolysis. Therefore, the amount of formazan dye measured at 490 nm, correlates directly with the number of metabolically active cells reflecting cell proliferation, viability, and cytotoxicity. Each assay was performed in quadruplicate.
(§1) All compounds were evaluated in different experiments. Results are represented as the mean of three independent experiments. A. ARPE-19 cells were treated with dose response of compound for 48 h. Values are reported as IC50 measured with the XTT assay. B and C. ARPE-19 cells were treated with 5 μM (B) or 1 μM (C) compound then with 200 μM H2O2 for 2 h. ROS were analyzed by cytometry. […] As illustrated in FIG. 1A. D. ARPE-19 cells were treated with 2.5 μM compound for 48 h and the level of CXCL1 mRNA was evaluated by qPCR. […] As illustrated in FIG. 1B. E. TIME cells were pre-treated with 2.5 μM compound for 1 h then stimulated with 100 ng/ml CXCL8 for 15 min p-ERK levels were analyzed by immunoblotting. HSP90 served as loading control. […] As illustrated in FIG. 1C.

ROS = ROS labeling by cytometry after H2O2; assay type: cell-based; details: for inhibition at 1 µM / inhibition at 5 µM: Homo sapiens, ARPE-19; for inhibition at 1 µM: 1 μM compound then 200 μM H2O2 for 2 h, read-out: C. ROS inhibition 1 μM - ARPE-19 cells; for inhibition at 5 µM: 5 μM compound then 200 μM H2O2 for 2 h, read-out: B. ROS inhibition 5 μM - ARPE-19 cells
Procedure: ARPE-19 cells were treated with MCK349 30 minutes then with 200 μM H2O2 for 2 h. 10 μM DCF-DA (2′,7′-Dichlorofluorescein diacetate) were added on cell media for 30 min. Cells were rinsed then detached (trypsin) and resuspended in PBS 0.5% BSA and 2 mM EDTA. The cells are analyzed by cytometry (ROS labeled with DCFDA-FITC).
as §1

ERK activation (p-ERK) = test: p-ERK immunoblotting after CXCL8 stimulation; assay type: cell-based; details: 2.5 μM compound 1 h then 100 ng/ml CXCL8 for 15 min; read-out: E. p-ERK inhibition - TIME
Procedure: Cells were lysed in buffer containing 3% SDS, 10% glycerol and 0.825 mM Na2HPO4. 30 to 50 μg of proteins separated on 10% SDS-PAGE, transferred onto a PVDF membrane and then exposed to the appropriate antibodies. Proteins were visualized with the ECL system using horseradish peroxidase-conjugated anti-rabbit or anti-mouse antibodies.
as §1

TIME cells [1] = test: Vessels formation assay on Matrigel; assay type: cell-based; details: 5 or 10 μM
Procedure: 300 μL of Matrigel Matrix were coated in 24-well plates and put 1 h a 37° C. Then Time cells were plated (300 000 cells/well). Plates were then incubated at 37° C., 5% CO2 for 24 hours. Representative images were taken with the Evos XL Core Cell Imaging System at low magnification (4×).

TIME cells [2] = test: Endothelial cells proliferation; assay type: cell-based; details: 72 h
Procedure: TIME cells were plated in 12-well plates (25 000 cells/well) in 0.5% SVF media and then stimulated with 100 ng/mL CXCL8 or CXCL7 for 72 h. Cell proliferation is assessed by cell count. The results are expressed as % of day 0 relative to the condition tested.

[3] = system: pro-inflammatory cytokines; test: LPS stimulated whole blood, multiplex ELISA; assay type: cell-based; details: human whole blood, 5 or 10 μM 1 h prior to 10 ng/ml LPS for 18 h
From the text: Human peripheral […] were obtained from healthy donors with informed consent following the Declaration of Helsinki according to recommendations of an independent scientific review board. The project has been validated by The Etablissement Français du Sang, the French national agency for blood collection (protocol 7952NQ). Blood samples were collected using ethylene diamine tetraacetic acid-containing tubes.
Whole blood will be removed from a single donor (K3-EDTA) and diluted 1:5 with RPMI 1640. Within 30 minutes of sampling, blood will be incubated with 5 or 10 μM MCK349 for 1 h prior to 10 ng/ml LPS stimulation for 18 h. Blood is centrifuged to recover plasma and cytokines are analyzed by multiplex ELISA (Meso Scale Discovery).
(§2) Cytokines from plasma (whole blood) or supernatant (ARPE-19 cells) were analyzed by multiplex ELISA. A multiplex ELISA was designed from U-PLEX Biomarker Group 1 (hu) Assays (K15069L-1). The protocol performed follows the instructions of the supplier.

[4] = system: pro-inflammatory, pro-angiogenic and/or pro-fibrotic mRNA markers; test: ARPE-19 stimulation to mimic diabetic retinopathy in vitro, mRNA by qPCR; assay type: cell-based; details: ARPE-19, high glucose + cytokines, 5 or 10 μM
Procedure: One microgram of total RNA was used for the reverse transcription, using the QuantiTect Reverse Transcription kit (QIAGEN, Hilden, Germany), with blend of oligo (dT) and random primers to prime first-strand synthesis. SYBR master mix plus (Eurogentec) was used for qPCR. The mRNA level was normalized to 36B4 mRNA
(§3) ARPE-19 cells were cultured in hyperglycaemic conditions (D-glucose, 25 mmol/l) for 16 days at 37° C. under 5% CO2 in medium (DMEM/F12) supplemented with 10% FBS and 1% penicillin. On day 16, cells were pre-treated with MCK349. On day 17, cells were washed and treated with MCK349 and cytokines (10 ng/ml IL1ß, 25 ng/ml VEGF and 25 ng/ml TNFα) for 24 h. Cytokines are analyzed by multiplex ELISA (Meso Scale Discovery) on the supernatant. Cells were recovered to analyze the mRNA level of different markers by qPCR.

[5] = system: pro-inflammatory, pro-angiogenic and/or pro-fibrotic cytokines; test: ARPE-19 stimulation to mimic diabetic retinopathy in vitro, cytokines by multiplex ELISA; assay type: cell-based; details: ARPE-19, high glucose + cytokines, 5, 10, or 25 μM
Procedure: as §3, §2

[6] = system: ocular (retinal) neo-angiogenesis; test: Hypoxia-induced retinal neo-angiogenesis in zebrafish; assay type: in vivo; details: hypoxia 5% oxygen 72 h, 0.25, 0.5, or 1 μM
Procedure: All animal experiments were approved by the Experimental Animal Ethical Committee. Transgenic zebrafish embryos (fli: EGFP, blood vessels marked in GFP) were raised at 28° C. under standard experimental conditions. Zebrafish embryos at the age of 24 hpf were incubated in aquarium water containing 0.2 mmol/L 1-phenyl-2-thio-urea (PTU, Sigma). At 48-hpf, zebrafish embryos were placed for 72 h in normoxia (Nx) or hypoxia 5% oxygen […], in the presence of treatment. Retinal neo-angiogenesis was analyzed by fluorescent confocal microscope and quantified by ImageJ.

[7] = system: choroidal neovascularization (CNV); test: Laser induced choroidal neovascularization and vascular leakage in mice; assay type: in vivo; details: intravitreal 52 μg/ml (2 μl) four times, Day 9 and 15
Procedure: Laser photocoagulation (shoot retina with laser beam (50 μm, 0.1 s, and 250~300 mW or any other parameters reasonable) for 4 spots avoiding blood vessels) were performed binocularly on each animal at Day 1 on male C57 mice (8 mice per group).
Vehicle and MCK349 (52 μg/ml) were delivered by binocular intravitreal injection (2 μl) four times in total. Once on Day 1 (right after modeling), Day 4, Day 7 and Day 11. Optical Coherence Tomography (OCT) was performed once on modeling day right after laser photocoagulation and once on Day 9 and Day 15. CNV volume of each lesion will be measured. Fundus Fluorescein Angiography (FFA) was conducted once on Day 9 and Day 15. The angiograms will be graded as follows: Grade 0, no bright hyperfluorescence; Grade 1, hyperfluorescence without leakage; Grade 2a, hyperfluorescence and late leakage; and Grade 2b, bright hyperfluorescence and late leakage beyond treated areas.

| Compound | IC50 (ARPE-19 cells) | oxidative stress (ROS) inhibition (ROS; ARPE-19, 1 μM MCK349 then 200 μM H2O2 for 2 h) | inhibition at 1 µM (ROS) | inhibition at 5 µM (ROS) | inhibition at 2.5 µM (ERK activation (p-ERK)) | vessel formation on matrigel (TIME cells [1]) | endothelial cell proliferation induced by CXCL7 (TIME cells [2]; 100 ng/mL CXCL7, 0.1, 0.2 or 0.5 μM) | endothelial cell proliferation induced by CXCL8 (TIME cells [2]; 100 ng/mL CXCL8, 0.1, 0.2 or 0.5 μM) | pro-inflammatory cytokines induced by LPS stimulation in whole blood [3] | expression (mRNA) of pro-angiogenic and/or pro-inflammatory cytokines in diabetic retinopathy model in vitro [4] | secretion of pro-angiogenic and/or pro-inflammatory cytokines in diabetic retinopathy model in vitro [5] | ocular (retinal) neo-angiogenesis in zebrafish [6] | choroidal neovascularization (CNV) [7] | vascular leakage (FFA grade 2b lesions) [7] | ocular (retinal) neo-angiogenesis in zebrafish ([6]; listed as MC342) |
| --- | --- | --- | --- | --- | --- | --- | --- | --- | --- | --- | --- | --- | --- | --- | --- |
| Nc1nc(Nc2ccc(Cl)c(Cl)c2)nn1Cc1cccc(Br)c1 [MCK349, 1-(3-bromobenzyl)-N^3-(3,4-dichlorophenyl)-1H-1,2,4-triazole-3,5-diamine] | > 25 µM | inhibits oxidative stress | ≥ 50% | ≥ 50% | ≥ 50% | inhibiting vessel formation on matrigel | inhibiting endothelial cell proliferation | inhibiting endothelial cell proliferation induced by CXCL8 | inhibit pro-inflammatory cytokines | inhibits pro-inflammatory, pro-angiogenic and/or pro-fibrotic mRNA markers; also recorded: inhibit the expression | inhibits pro-inflammatory, pro-angiogenic and/or pro-fibrotic cytokines; also recorded: inhibit the expression (mRNA, FIG. 3) and secretion | inhibit ocular (retinal) neo-angiogenesis; also recorded: inhibit ocular neoangiogenesis | inhibits vascular leakage (FIGS. 9A and B) and neovascularization; also recorded: inhibits choroidal neovascularization (CNV) | inhibits choroidal neovascularization (CNV) and vascular leakage | – |
| Cc1ccc(Nc2nc(N)n(Cc3cccc(Br)c3)n2)cc1 [MCK342, 1-(3-bromobenzyl)-N^3-(4-methylphenyl)-1H-1,2,4-triazole-3,5-diamine] | > 25 µM | – | ≥ 50% | ≥ 50% | < 50% | – | – | – | inhibit pro-inflammatory cytokines | inhibit the expression | inhibit the expression (mRNA, FIG. 3) and secretion | inhibit ocular neoangiogenesis | – | – | inhibit ocular (retinal) neo-angiogenesis |
